The results in this text go back to US6537803B1, “Amino acid transporters and uses” (Oregon Health Sciences University, priority 1993, dated 2003).

Where two headings read alike, the source gives them in different places. Residues, ends and D or L forms follow the SMILES beside them.

Common to all, as to assay type: cell-based
The target in assay [1] is T1, human EAAT3 (Homo sapiens, UniProt P43005).
T1 construct: isolation of Clone GT11B containing a full-length open reading frame encoding EAAT3; expressed in transfected cells; host or cells: COS-7 cells, pCMV5 construct, DEAE-dextran transient transfection
T1 sequence (P43005 1-524): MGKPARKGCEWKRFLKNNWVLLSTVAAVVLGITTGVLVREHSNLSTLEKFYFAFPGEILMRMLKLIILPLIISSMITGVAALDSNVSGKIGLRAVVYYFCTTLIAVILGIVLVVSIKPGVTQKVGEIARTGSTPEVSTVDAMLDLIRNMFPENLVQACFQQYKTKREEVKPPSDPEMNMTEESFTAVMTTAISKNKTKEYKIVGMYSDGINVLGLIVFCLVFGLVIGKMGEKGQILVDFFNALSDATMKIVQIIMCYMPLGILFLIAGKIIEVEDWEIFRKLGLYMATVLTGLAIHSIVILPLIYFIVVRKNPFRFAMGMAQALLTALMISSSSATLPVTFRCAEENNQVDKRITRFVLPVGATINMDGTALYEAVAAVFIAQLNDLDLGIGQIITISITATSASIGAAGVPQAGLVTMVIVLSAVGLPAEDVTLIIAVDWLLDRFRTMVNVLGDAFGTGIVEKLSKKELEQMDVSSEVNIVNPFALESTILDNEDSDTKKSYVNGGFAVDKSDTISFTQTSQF
Put plainly: inhibition of [3H]-L-glutamate uptake in COS-7 cells expressing EAAT3. The settings on record: for inhibition of glutamate uptake (in words), EAAT3: COS cell culture. The source says: (§1) DNA fragments comprising the coding sequences of the novel glutamate transporter genes of the invention were excised from the POTV constructs described in Example 3 and subcloned into the mammalian expression plasmid pCMV5 (Anderson et al., 1989, J. Biol. Chem. 264: 8222-8229). These mammalian expression constructs were used for transient expression assays of glutamate transporter protein function after transfection of each of these constructs into COS-7 cells (Gluzman, 1981, Cell 23: 175-182).
(§2) Each of the pCMV5 constructs corresponding to EAAT1, EAAT2 and EAAT3 were introduced into COS-7 cells by DEAE-dextran facilitated transfection (see Sambrook et al., ibid.). Two day following transfection, the transfected cells were washed three times in phosphate-buffered saline (PBS) and then incubated with a mixture of radiolabeled amino acid ([^3H]-L-glutamate or [^3H]-D-aspartate; Dupont-NEN) and non-radiolabeled amino acid for 10 min. After incubation, the cells were washed three times with ice-cold PBS, solubilized with a solution of 0.1% sodium dodecyl sulfate (SDS) and the amount of radioactivity associated with the cells determined using standard liquid scintillation counting methods.
(§3) COS-7 cell cultures transformed with pCMVS-human glutamate transporter constructs as described in Example 4 were used to characterize the pharmacological properties of each of these transporter proteins relative to a variety of known glutamate transporter inhibitors. These assays were performed essentially as described in Example 4, with the exception that varying amounts of each of a number of known inhibitor compounds were included in the incubations.
(§4) In these experiments, uptake of 1 μM of […] was determined in the presence of the indicated amounts of each of the inhibitors.

For assay [2], the target named is T2, human EAAT2 (Homo sapiens, UniProt P43004).
T2 construct: expressed in transfected cells; host or cells: COS-7 cells, pCMV5 construct, DEAE-dextran transient transfection
T2 sequence (P43004 whole entry): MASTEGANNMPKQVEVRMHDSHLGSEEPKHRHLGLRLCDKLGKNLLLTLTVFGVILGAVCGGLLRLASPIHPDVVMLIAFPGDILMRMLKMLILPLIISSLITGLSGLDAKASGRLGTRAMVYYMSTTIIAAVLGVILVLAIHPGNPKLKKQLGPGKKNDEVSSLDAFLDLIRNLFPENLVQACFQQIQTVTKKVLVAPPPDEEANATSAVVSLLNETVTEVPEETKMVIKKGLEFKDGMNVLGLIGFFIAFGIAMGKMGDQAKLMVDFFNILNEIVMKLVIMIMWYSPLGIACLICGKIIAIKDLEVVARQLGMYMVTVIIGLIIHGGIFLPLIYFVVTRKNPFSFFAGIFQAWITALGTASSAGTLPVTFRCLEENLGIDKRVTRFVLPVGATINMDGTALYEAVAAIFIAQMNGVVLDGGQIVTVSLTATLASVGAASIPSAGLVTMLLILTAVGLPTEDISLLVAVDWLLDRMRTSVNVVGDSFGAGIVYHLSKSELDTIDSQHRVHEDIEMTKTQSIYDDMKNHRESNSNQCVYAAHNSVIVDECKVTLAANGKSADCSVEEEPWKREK
Briefly: inhibition of [3H]-L-glutamate uptake in COS-7 cells expressing EAAT2. The settings on record: for inhibition of glutamate uptake (in words), EAAT2: COS cell culture.
Excerpt: as §1, §2, §3, §4

Assay [3] has as its target T3, human EAAT1 (Homo sapiens, UniProt P43003).
T3 construct: expressed in transfected cells; host or cells: COS-7 cells, pCMV5 construct, DEAE-dextran transient transfection
Briefly: inhibition of [3H]-L-glutamate uptake in COS-7 cells expressing EAAT1. Conditions: for inhibition of glutamate uptake (in words), EAAT1: COS cell culture.
Excerpt: as §1, §2, §3, §4

Assay [4] addresses T4, human ASCT1 neutral amino acid transporter (Homo sapiens, UniProt P43007).
T4 construct: expressed in transfected cells; host or cells: Xenopus laevis oocytes injected with in vitro transcribed RNA (pOTV vector)
T4 sequence (P43007 1-532): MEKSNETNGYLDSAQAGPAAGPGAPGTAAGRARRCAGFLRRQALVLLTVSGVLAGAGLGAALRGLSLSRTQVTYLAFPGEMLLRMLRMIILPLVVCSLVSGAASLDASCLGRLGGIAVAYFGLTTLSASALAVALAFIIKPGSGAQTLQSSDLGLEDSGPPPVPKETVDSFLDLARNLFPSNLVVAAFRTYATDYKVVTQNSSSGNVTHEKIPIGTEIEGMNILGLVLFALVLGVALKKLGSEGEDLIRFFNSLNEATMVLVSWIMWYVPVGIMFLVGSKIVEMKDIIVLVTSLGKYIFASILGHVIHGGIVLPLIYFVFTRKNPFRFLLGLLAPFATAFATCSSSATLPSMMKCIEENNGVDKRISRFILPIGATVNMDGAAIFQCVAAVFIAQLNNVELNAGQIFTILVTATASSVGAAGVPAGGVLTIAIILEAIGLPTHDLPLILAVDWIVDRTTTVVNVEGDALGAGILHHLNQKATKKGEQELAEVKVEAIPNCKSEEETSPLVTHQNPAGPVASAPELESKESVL
Put plainly: amino acid-induced inward current in voltage-clamped ASCT1-injected Xenopus oocytes. Conditions: for effect on membrane current of ASCT1-injected oocytes: much higher concentrations (about 1 mM); for Imax (maximal current): L-stereoisomer, current normalized to the maximum response obtained with L-alanine, mean ± standard error. From the text:
Following the PCR, the product of the amplification reaction was purified using standard techniques (Saiki et al., 1988, Science 239: 487-491). The DNA then digested with the restriction enzymes KpnI and XbaI and then cloned into the polylinker of an oocyte transcription vector (POTV; see Wang el al., 1991, Nature 352: 729-731) that had been digested with KpnI and XbaI. Synthetic RNA was then transcribed in vitro from this clone using the method of Kavanaugh et al. (1992, J. Biol. Chem. 267: 22007-22009) employing bacteriophage T7 RNA polymerase (New England Biolabs, Beverly, Mass.). 20-50 nL of ASCT1 RNA (at a concentration of about 400 μg/mL) was injected into defolliculated stage V-VI Xenopus oocytes excised from female Xenopus laevis anesthetized by immersion in 3-aminobenzoic acid for 60 min. Excised oocytes were treated with collagenase II (Sigma Chemical Co., St. Louis, Mo.) in calcium-free Barth's saline solution [comprising 88 mM NaCl, 1 mM KCl, 2.4 mM NaHCO3, 0.82 mM MgSO4, 7.5 mM Tris-HCl (pH 7.6), 50 U/mL Nystatin (Sigma) and 0.1 mg/mL gentamycin (Sigma)] for 60 min., and then incubated overnight at 15° C. in 50% Leibowitz's L-15 media (Grand Island Biological Co. (GIBCO), Long Island, N.Y.). After overnight incubation the oocytes were mechanically defolliculated and then were injected with ASCT-1 RNA and incubated at 19° C. for 48 h (see Kim el al., 1991, Nature 352: 725-728 for further details of Xenopus oocyte preparation and microinjection).
Amino acid transport in such oocytes was assayed using [^3H] alanine, [^3H] serine or [^35S] cysteine (obtained from New England Nuclear, Boston, Mass.). Briefly, microinjected oocytes were […] at −60 mV using a Dagan TEV-200 clamp amplifier with an Axon Instruments (Foster City, Calif.) TL-1 A/D interface controlled by pCLAMP software (Axon Instruments) (see Kavanaugh et al., 1992, J. Biol. Chem. 267: 22007-22009 for a detailed review of this methodology) and continuously superfused with ND-96 buffer (consisting of 96 mM NaCl/2 mM KCl/1.8 mM CaCl2/1 mM MgCl2/5 mM HEPES, pH 7.5). For transport measurements, this solution was changed to a solution containing varying concentrations of the radiolabeled amino acids in ND-96 buffer.
More detailed analyses of ithe kinetics of amino acid influx were performed by least squares linear regression analysis of induced inward current ([I]) plotted as a function of substrate amino acid concentration ([S]), using the equation shown in the legend of Table II.

The mark [5] stands for this setting: read-out: Ki, glutamate uptake inhibition constant, EAAT3.
Setting [6] is: read-out: Ki, glutamate uptake inhibition constant, EAAT2.
[7] abbreviates: read-out: Ki, glutamate uptake inhibition constant, EAAT1.

T3 sequence (P43003 whole entry): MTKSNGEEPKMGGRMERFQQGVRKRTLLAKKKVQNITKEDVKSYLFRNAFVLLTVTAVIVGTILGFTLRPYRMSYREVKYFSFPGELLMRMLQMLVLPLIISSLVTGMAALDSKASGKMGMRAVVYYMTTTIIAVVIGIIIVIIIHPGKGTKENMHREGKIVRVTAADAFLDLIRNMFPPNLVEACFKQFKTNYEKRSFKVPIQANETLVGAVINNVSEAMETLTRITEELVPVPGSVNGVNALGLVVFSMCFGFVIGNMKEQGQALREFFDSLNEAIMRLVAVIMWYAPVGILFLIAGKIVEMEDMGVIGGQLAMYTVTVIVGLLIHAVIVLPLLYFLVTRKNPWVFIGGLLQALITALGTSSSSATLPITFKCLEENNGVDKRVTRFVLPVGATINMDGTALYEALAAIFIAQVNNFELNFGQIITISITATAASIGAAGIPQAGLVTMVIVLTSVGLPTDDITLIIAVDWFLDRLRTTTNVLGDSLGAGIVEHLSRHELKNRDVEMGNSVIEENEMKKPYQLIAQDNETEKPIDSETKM

On to `N[C@@H](CS(=O)O)C(=O)O` [L-cysteine sulfinic acid], for which the Ki in assay [1] (setting [5]) was 17 ± 2 µM; in assay [2] (setting [6]), 6 ± 1 µM; in assay [3] (setting [7]), 14 ± 7 µM.
For `N[C@@H](COS(=O)(=O)O)C(=O)O` [SOS, L-serine-O-sulfate], the results for the Ki in assay [1], in assay [2] and in assay [3] were 150 ± 52 µM, 1160 ± 275 µM and 107 ± 8 µM, respectively.
As for `O=C1CC[C@@H](C(=O)O)N1` [L-pyroglutamicacid], in assay [1], the “inhibition of glutamate uptake (in words), EAAT3” value (shortened to “inhibition … EAAT3”) is reported as “ineffective”. Besides, the “inhibition of glutamate uptake (in words), EAAT2” value (shortened to “inhibition … EAAT2”) in assay [2] is “ineffective”. The “inhibition of glutamate uptake (in words), EAAT1” value (shortened to “inhibition … EAAT1”) in assay [3] is on record as “ineffective”.
Consider `NC(=O)C[C@H](N)C(=O)O` [asparagine], for which the “effect on membrane current of ASCT1-injected oocytes” value (shortened to “effect on membrane current”) in assay [4] is listed as “had no effect”.
As to `CC(C)C[C@H](N)C(=O)O` [leucine], in assay [4], the “effect on membrane current” value was “had no effect”.
For `O=C(O)[C@@H]1CCCN1` [proline], the “effect on membrane current” value in assay [4] is recorded as “had no effect”.
With `NC1(C(=O)O)CC(C(=O)O)C1` (stereo not drawn) [cis-1-aminocyclobutane-1,3-dicarboxylate], in assay [1], the “inhibition … EAAT3” value was “ineffective”. Further, the “inhibition … EAAT2” value in assay [2] was “ineffective”. Further, in assay [3], the “inhibition … EAAT1” value is recorded as “ineffective”.
Take `CC(C)[C@H]1CN[C@H](C(=O)O)[C@H]1CC(=O)O` [DHK, dihydrokainate]: the figures for the Ki in assay [1], in assay [2] and in assay [3] were above 1000 µM, 23 ± 6 µM and above 1000 µM, respectively.
As to `CSCC[C@H](N)C(=O)O` [methionine], in assay [4], the “effect on membrane current” value is reported as “had no effect”.
As to `CC(=O)N[C@@H](CC(=O)O)C(=O)N[C@@H](CCC(=O)O)C(=O)O` [N-acetyl aspartylglutamate] (Ac-Asp-Glu-OH), in assay [1], the “inhibition … EAAT3” value is “ineffective”. The “inhibition … EAAT2” value in assay [2] is “ineffective”. Also, the “inhibition … EAAT1” value in assay [3] is listed as “ineffective”.
Consider `N[C@@H](Cn1oc(=O)[nH]c1=O)C(=O)O` [quisqualate], for which, in assay [1], the “inhibition … EAAT3” value is “ineffective”. The “inhibition … EAAT2” value in assay [2] is listed as “ineffective”. In addition, the “inhibition … EAAT1” value in assay [3] is “ineffective”.
Take `N=C(N)NCCC[C@H](N)C(=O)O` [arginine]: the “effect on membrane current” value in assay [4] is given as “had no effect”.
Consider `CC(C)[C@H](N)C(=O)O` [Valine], for which, in assay [4], the “Imax (maximal current)” value is listed as 0.6 ± 0.11.
Turning to `NCCCC[C@H](N)C(=O)O` [L-lysine], in assay [4], the “effect on membrane current” value is “had no effect”.
Consider `NC(CC(=O)O)CC(=O)O` [β-glutamate], for which the Ki in assay [1] (uptake of 1 μM [3H]-L-glutamate, [S] << Km, Ki does not differ significantly from measured IC50, read-out: Ki, glutamate uptake inhibition constant, EAAT3) was 307 ± 48 µM; in assay [2] (uptake of 1 μM [3H]-L-glutamate, [S] << Km, Ki does not differ significantly from measured IC50, read-out: Ki, glutamate uptake inhibition constant, EAAT2), 156 ± 37 µM; in assay [3] (uptake of 1 μM [3H]-L-glutamate, [S] << Km, Ki does not differ significantly from measured IC50, read-out: Ki, glutamate uptake inhibition constant, EAAT1), 297 ± 118 µM.
For the molecule `N[C@H](C(=O)O)[C@H](O)C(=O)O` [THA, L-threo-β-hydroxyaspartate], the results for the Ki in assay [1] (setting [5]), in assay [2] (setting [6]) and in assay [3] (setting [7]) were 25 ± 5 µM, 19 ± 6 µM and 32 ± 8 µM, respectively.
Take `C[C@@H](N)C(=O)O` [D-alanine]: the “response relative to the response produced by L-alanine” value in assay [4] (stereospecificity) is recorded as 12±3%.
`NCC(=O)O` [glycine]: in assay [4], the “effect on membrane current” value is recorded as “had no effect”.
Regarding `N[C@@H](CSS(=O)(=O)O)C(=O)O` [S-sulfo-L-cysteine], the “inhibition … EAAT3” value in assay [1] is listed as “ineffective”. Further, the “inhibition … EAAT2” value in assay [2] is reported as “ineffective”. The “inhibition … EAAT1” value in assay [3] is on record as “ineffective”.
Consider `NC(CCCC(=O)O)C(=O)O` (stereo not drawn) [α-aminoadipate], for which the “inhibition … EAAT3” value in assay [1] is reported as “only low potency”. For the same molecule, in assay [2], the “inhibition … EAAT2” value is “only low potency”. The “inhibition … EAAT1” value in assay [3] was “only low potency”.
In the case of `C[C@@H](O)[C@H](N)C(=O)O` [Threonine], the “Imax (maximal current)” value in assay [4] was 1.4 ± 0.03.
Regarding `CN[C@@H](C)C(=O)O` [N-methylalanine], the “effect on membrane current” value in assay [4] is given as “had no effect”.
In the case of `NC(=O)CC[C@H](N)C(=O)O` [L-glutamine], the “effect on membrane current” value in assay [4] was “had no effect”.
